Bridge positions count the residues as written; N and C are the ends. Peptide text beside a SMILES is read from it.
Experiments:
bovine trypsin = target: T1, bovine trypsin (Bos taurus, UniProt P00760); assay: Surface plasmon resonance binding to trypsin
T1 sequence (P00760 24-246): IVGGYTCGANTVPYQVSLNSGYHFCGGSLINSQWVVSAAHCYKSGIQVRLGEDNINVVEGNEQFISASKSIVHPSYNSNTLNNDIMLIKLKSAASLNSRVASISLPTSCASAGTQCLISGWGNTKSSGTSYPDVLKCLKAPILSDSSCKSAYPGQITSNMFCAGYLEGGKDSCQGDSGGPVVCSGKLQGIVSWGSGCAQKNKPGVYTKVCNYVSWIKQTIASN

Human β-FXIIa = target: T2, Human β-FXIIa (Homo sapiens, UniProt P00748); assay: FXIIa competitive inhibition assay, colorimetric substrate Ac-QRFR-pNA; assay type: biochemical
T2 construct: Human β-FXIIa was obtained from Molecular Innovations, together with human FXa, human FXIa, human α-thrombin, and human plasma kallikrein; purchased Molecular Innovations; host or cells: purified from human plasma
Procedure, shortened: (§1)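 Serially diluted inhibitors equilibrated at room temperature with 10 nM β-FXIIa in 0.1 M Tris-HCl pH 8.0, 0.1 M NaCl, 10 mM CaCl2, 0.005% Triton X-100; 100 μM Ac-QRFR-pNA (KM=162 μM), A405 over 7 min. Off-target proteases used differing enzyme/substrate levels, some with fluorogenic MCA substrates (ex 360/em 460 nm, 5-30 min). Morrison Ki by non-linear regression.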

Human trypsin = target: T3, Human trypsin (Homo sapiens, UniProt P07477); assay: Trypsin competitive inhibition assay; assay type: biochemical; details: Table 10; read-out: Ki Trypsin
T3 construct: purchased Sigma-Aldrich; host or cells: purified from human tissue
Procedure, shortened: as §1

Human thrombin = target: T4, Human thrombin (Homo sapiens, UniProt P00734); assay: Thrombin inhibition assay; assay type: biochemical
T4 construct: Human β-FXIIa was obtained from Molecular Innovations, together with human FXa, human FXIa, human α-thrombin, and human plasma kallikrein; purchased Molecular Innovations; host or cells: purified from human plasma
Experimental: (§2) The activity of acyclic and cyclic MCoFx1-5 and analogues thereof was assessed in competitive inhibition assays, as previously described in Swedberg et al. (2016) J Med Chem, 59: 7287-7292. Human β-FXIIa was obtained from Molecular Innovations, together with human FXa, human FXIa, human α-thrombin, and human plasma kallikrein. Human cationic trypsin and human plasmin were obtained from Sigma-Aldrich, and recombinant human matriptase was sourced from R&D Systems. Recombinant human urokinase (uPA) and recombinant human tissue plasminogen activator (tPA) were expressed in Expi293 cells, as previously described in Li et al. (2019) Chembiochem, 20: 46-50. FXIIa inhibition assays were performed in clear, low-binding 96-well plates using 250 μL (final volume) of assay buffer (0.1 M Tris-HCl pH 8.0, 0.1 M NaCl, 10 mM CaCl2 and 0.005% Triton X-100). Inhibitors were serially diluted and incubated with 10 nM FXIIa at room temperature to reach equilibrium. After adding 100 μM Ac-QRFR-pNA substrate (KM=162 μM), enzymatic activity was measured by monitoring release of the pNA moiety using a TECAN infinite M1000 Pro plate reader (A=405 nm, reading interval, 10 s; assay time course, 7 min). Assays were conducted in three times in duplicate. Substrate kinetic constants (Michaelis-Menten) and inhibition constants (Morrison K) were determined by non-linear regression using Prism 7 (GraphPad). Selectivity assays with off-target proteases were performed in a similar way, except that different concentrations of enzyme and substrate were used, as indicated in Table 16. For assays using a fluorescent substrate (peptide-4-methylcoumaryl-7-amide, MCA), black low-binding 96-well plates were used and activity was measured using a TECAN infinite M1000 pro plate reader (λex 360 nm, λem 460 nm, reading interval, 30 s; assay time course, 5-30 min).

Human plasmin = target: T5, Human plasmin (Homo sapiens, UniProt P00747); assay: Plasmin inhibition assay; assay type: biochemical
T5 construct: Human cationic trypsin and human plasmin were obtained from Sigma-Aldrich, and recombinant human matriptase was sourced from R&D Systems; purchased Sigma-Aldrich; host or cells: purified from human plasma
Experimental: as §2

Rec. human tPA = target: T6, Rec. human tPA (Homo sapiens, UniProt P00750); assay: tPA inhibition assay; assay type: biochemical
T6 construct: made in house; host or cells: Expi293 cells
Experimental: as §2

Rec. human matriptase = target: T7, Rec. human matriptase (Homo sapiens, UniProt Q9Y5Y6); assay: Matriptase inhibition assay; assay type: biochemical; details: Table 10; read-out: Ki Matriptase
T7 construct: purchased R&D Systems
T7 sequence (Q9Y5Y6 615-855 limits assumed): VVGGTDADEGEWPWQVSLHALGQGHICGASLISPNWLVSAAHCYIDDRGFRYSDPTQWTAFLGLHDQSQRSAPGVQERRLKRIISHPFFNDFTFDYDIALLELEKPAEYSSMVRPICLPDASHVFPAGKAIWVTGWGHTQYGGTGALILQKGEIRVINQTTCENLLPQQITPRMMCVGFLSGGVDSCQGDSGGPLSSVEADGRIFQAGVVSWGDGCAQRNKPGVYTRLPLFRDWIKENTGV
Procedure, shortened: as §1

[1] = system: clotting via the extrinsic pathway; assay: Prothrombin time (PT) assay in human plasma; assay type: biochemical; details: at 10 μM
Description: Citrated, platelet-poor plasma samples from healthy adults were collected, prepared, and stored using previously established collection protocols, such as in Zdenek et al. (2019) Toxicol in Vitro, 58: 97-109.
Standard coagulation assays were used to determine the effect of the inhibitors on the clotting time of human plasma. Activated partial thromboplastin time (aPTT) uses a Kaolin reagent (clay) to activate the intrinsic/contact pathway of the coagulation cascade, whereas prothrombin time (PT) uses Neoplastine (lyophilized thromboplastin prepared from rabbit cerebral tissue) to activate the extrinsic/tissue-factor pathway of the coagulation cascade. A minor adjustment was made to both tests (addition of 25 μL inhibitor or buffer; refer to Table 17) to accommodate the addition of an inhibitor without changing the total volume (and therefore relative ratios of additives) of the assay. Concentrations of inhibitor are reported as the concentration at the point of incubation in the assay, i.e. not taking into account the addition of the start reagent (calcium for aPTT, or Neoplastine for PT).
Clotting time (seconds) of plasma was automatically measured using a STA-R Max® analyzer (Stago, Asnieres sur Seine, France). Measurements were conducted using a viscosity-based (mechanical) detection system, whereby opposing magnets oscillate a small metal spherical pellet inside the test cuvette (250 μL total volume) until a clot is formed. Dilution of the inhibitor in Owren-Koller (OK) buffer for dose-response curves was performed automatically by the machine. Reagents were kept at 15-19° C. in the machine during experimentation and otherwise stored at 4° C. All tests were performed in triplicate.

[2] = system: human umbilical vein endothelial cells (HUVECs)
Experimental: HUVECs were cultured in complete EGM™-2 medium until 80% confluence under 5% CO2 at 37° C. before being seeded onto a 96-well microplate at 5,000 cells/well. Cells were grown for 24 h prior to the assay. […] Peptides were diluted tenfold with serum-free EGM™-2 medium and incubated with HUVECs in triplicate. After 24 h incubation, peptide solutions were replaced with fresh complete EGM™-2 medium before the addition of 0.05% resazurin solution (Sigma-Aldrich). Cells were incubated for another 8 h and the absorbance of the plate was measured on a microplate reader at 540 and 620 nm. H2O and 1% Triton-X were used as control for 100 and 0% viability, separately.

T2 sequence (P00748 373-615 limits assumed, other chains not shown): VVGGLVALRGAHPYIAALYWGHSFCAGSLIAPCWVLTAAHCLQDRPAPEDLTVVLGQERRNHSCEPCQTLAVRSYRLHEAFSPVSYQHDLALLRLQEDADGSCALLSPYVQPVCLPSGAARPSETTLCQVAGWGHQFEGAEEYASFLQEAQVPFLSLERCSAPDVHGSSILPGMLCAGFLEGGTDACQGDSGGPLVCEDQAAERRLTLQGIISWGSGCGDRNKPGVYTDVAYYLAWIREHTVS
T6 sequence (P00750 36-562): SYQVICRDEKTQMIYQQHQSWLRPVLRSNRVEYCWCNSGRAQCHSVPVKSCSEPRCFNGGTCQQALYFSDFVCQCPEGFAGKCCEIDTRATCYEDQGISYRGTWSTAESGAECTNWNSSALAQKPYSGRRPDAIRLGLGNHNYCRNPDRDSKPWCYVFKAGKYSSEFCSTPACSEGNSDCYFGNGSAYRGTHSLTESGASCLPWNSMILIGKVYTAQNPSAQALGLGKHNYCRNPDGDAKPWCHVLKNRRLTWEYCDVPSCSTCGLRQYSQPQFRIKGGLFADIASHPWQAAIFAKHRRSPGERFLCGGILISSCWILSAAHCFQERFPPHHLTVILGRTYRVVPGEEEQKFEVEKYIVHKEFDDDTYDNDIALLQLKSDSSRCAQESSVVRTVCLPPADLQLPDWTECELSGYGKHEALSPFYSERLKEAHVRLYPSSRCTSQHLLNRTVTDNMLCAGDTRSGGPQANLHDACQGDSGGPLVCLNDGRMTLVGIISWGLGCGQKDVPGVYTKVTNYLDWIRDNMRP
T5 sequence (P00747 581-810 limits assumed): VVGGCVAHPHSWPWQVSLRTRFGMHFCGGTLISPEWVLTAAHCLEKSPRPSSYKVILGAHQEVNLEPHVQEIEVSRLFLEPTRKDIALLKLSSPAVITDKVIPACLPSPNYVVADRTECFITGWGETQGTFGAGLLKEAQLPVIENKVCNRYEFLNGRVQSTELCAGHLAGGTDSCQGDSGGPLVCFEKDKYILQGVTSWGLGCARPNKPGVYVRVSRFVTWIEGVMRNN
T5 sequence (P00747 97-580 partner limits assumed): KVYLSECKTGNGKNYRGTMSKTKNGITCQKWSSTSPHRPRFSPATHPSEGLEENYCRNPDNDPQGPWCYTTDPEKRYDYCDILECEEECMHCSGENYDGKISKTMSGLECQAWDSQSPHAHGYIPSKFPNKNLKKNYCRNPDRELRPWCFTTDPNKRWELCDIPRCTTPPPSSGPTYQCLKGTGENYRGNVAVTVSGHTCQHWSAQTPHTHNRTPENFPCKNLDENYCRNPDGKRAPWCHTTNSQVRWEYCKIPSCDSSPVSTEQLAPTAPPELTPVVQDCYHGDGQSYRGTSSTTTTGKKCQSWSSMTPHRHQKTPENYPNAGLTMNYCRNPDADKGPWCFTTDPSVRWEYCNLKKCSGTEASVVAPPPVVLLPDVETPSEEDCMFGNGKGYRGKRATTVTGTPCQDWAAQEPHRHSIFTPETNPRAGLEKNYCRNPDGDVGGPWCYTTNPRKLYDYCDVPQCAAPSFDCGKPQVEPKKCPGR

For CC[C@H](C)[C@@H]1NC(=O)CNC(=O)CNC(=O)[C@H](CC(=O)O)NC(=O)[C@H](Cc2ccc(O)cc2)NC(=O)CNC(=O)[C@H](CO)NC(=O)CNC(=O)[C@@H]2CSSC[C@@H]3NC(=O)[C@H](CC(=O)O)NC(=O)[C@H](CO)NC(=O)[C@H](CC(=O)O)NC(=O)[C@H](CCCNC(=N)N)NC(=O)[C@H](CCCNC(=N)N)NC(=O)[C@@H]4CSSC[C@H](NC(=O)[C@H]([C@@H](C)CC)NC(=O)[C@H](CSSC[C@H](NC1=O)C(=O)N1CCC[C@H]1C(=O)N[C@@H](CCCNC(=N)N)C(=O)N[C@@H]([C@@H](C)CC)C(=O)NCC(=O)N[C@@H](CCCNC(=N)N)C(=O)N[C@@H](CC(C)C)C(=O)N4)NC(=O)[C@H](C)NC(=O)CNC(=O)[C@@H]1CCCN1C3=O)C(=O)N[C@@H](CCCNC(=N)N)C(=O)N[C@@H](C)C(=O)N[C@@H]([C@@H](C)O)C(=O)N[C@@H](CCCNC(=N)N)C(=O)N[C@@H](Cc1ccccc1)C(=O)N2 [MCoFx1 cyclic] (cyclo(ACICRATRFCGSGYDGGICPRIGRLCRRDSDCPG); disulfide 2-19, 4-26, 10-32), the Kd (bovine trypsin; Table 8, cyclic form, read-out: KD (nM) Trypsin Cyclic) was 31.5 nM, the “fold lower affinity for trypsin compared with MCoTI-II” value (bovine trypsin; ratio of KD values) was 300 fold and the Ki (Human β-FXIIa; Table 7, FXIIa, cyclic form of the peptide, read-out: Ki (nM) Cyclic) was 0.37 ± 0.04 nM. The “fold more potent than MCoTI-II (FXIIa Ki)” value (Human β-FXIIa; ratio of Ki values) was 350 fold, the “difference in Ki FXIIa versus trypsin” value (Human β-FXIIa; selectivity) was “exceeds three orders of magnitude” and the Ki (Human trypsin) was 1110 nM. The inhibition at 5 µM (Human thrombin; at 5 μM, read-out: percent inhibition Thrombin) was 2%, the IC50 (Human thrombin; read-out: IC50 Thrombin) was over 5000 nM and the inhibition at 5 µM (Human plasmin; at 5 μM, read-out: percent inhibition Plasmin) was 13%. The IC50 (Human plasmin; read-out: IC50 Plasmin) was over 5000 nM, the inhibition at 5 µM (Rec. human tPA; at 5 μM, read-out: percent inhibition tPA) was 0% and the IC50 (Rec. human tPA; read-out: IC50 tPA) was over 5000 nM. For the same compound, the Ki (Rec. human matriptase) was 9120 nM, the “clotting time compared to control, PT assay” value [1] was “No significant differences in clotting time compared to control assays” and the “cytotoxicity to HUVECs” value [2] was “not toxic”.
